The text below walks through data of US4868195A, “Novel enolamides, pharmaceutical compositions and methods of use thereof for activity as modulators of the arachidonic acid cascade” (Warner-Lambert Company, priority 1988, dated 1989).

Each structure is given as a SMILES string.

Experiment [1] has as its target T1, leukotriene receptor (guinea pig lung membranes) (Cavia porcellus, UniProt Q2NNR5).
T1 construct: 20 mg original tissue wet weight of guinea pig lung; tissue Kuiper Rabbit Farm, Gary, IN (animals); host or cells: guinea pig lung, crude membranes
T1 sequence (Q2NNR5 1-340): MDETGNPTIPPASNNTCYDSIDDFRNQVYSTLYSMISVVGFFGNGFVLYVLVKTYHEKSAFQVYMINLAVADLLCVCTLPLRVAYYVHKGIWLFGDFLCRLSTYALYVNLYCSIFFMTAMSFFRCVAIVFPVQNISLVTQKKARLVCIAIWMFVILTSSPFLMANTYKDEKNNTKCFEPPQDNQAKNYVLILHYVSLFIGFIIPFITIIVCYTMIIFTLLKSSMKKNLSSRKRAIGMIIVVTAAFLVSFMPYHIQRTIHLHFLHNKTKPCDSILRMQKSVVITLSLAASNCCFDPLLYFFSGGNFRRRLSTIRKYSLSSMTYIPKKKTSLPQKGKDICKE
As to the kind of experiment: Binding of ^3 H-Leukotriene D4 to Guinea Pig Lung Membranes (RBL). The note with it: 0.2 nM ^3 H-LTD4, 60 min, 25° C.; read-out: Concentration (M) for 50.0 % Inhibition, IC (RBL). As to the method:
Additionally, the activity, of the compounds having the Formula I of the present invention is determined by the well known leukotriene receptor binding assay that is described by R. F. Bruns, W. J. Thomsen and T. A. Pugsley in Life Sciences, 33, 645 (1983) or the Herxheimer in vivo antiallergy test described in H. Herxheimer, J. Physiol. (London), Vol. 177, p. 251 (1952).
Binding of ^3 H-Leukotriene D4 to Guinea Pig Lung Membranes (RBL)
[14,15-^3 H]leukotriene D4 (^3 H-LTD4) (25 Ci/mmol and 40 Ci/mmol) is purchased from New England Nuclear. Unlabeled LTC4 is a gift of Ono Pharmaceuticals (Japan). LTC4, LTD4, and LTE4 are purchased as methyl esters from Paesel GmbH (Frankfurt, W. Germany). Concentrations of the Paesel leukotrienes are calculated from their absorbance at 280 nm. Leukotriene esters are saponified overnight under N2 in 3.3% potassium carbonate at room temperature. Tritiated leukotrienes are stored as received from New England Nuclear at -20° C. Ono LTC4 (5 μg/ml) is stored at -60° C. in phosphate buffer pH 6.8. Saponified Paesel leukotrienes are stored at -60° C. in 3.3% potassium carbonate (pH 9.0-9.5). Aliquots of leukotrienes are taken from stock solutions immediately after thawing, after which the stock solutions are immediately refrozen. 2-Amino-2-(hydroxymethyl)-1,3-propanediol (Tris) is Sigma pH 7.7 pre-set crystals, and dimethylsulfoxide is Aldrich Gold Label.
Preparation of crude lung membranes
Two pairs of lungs (1.3 g) from freshly sacrificed 300 g male guinea pigs (older animals gave substantially lower binding) from Kuiper Rabbit Farm, Gary, IN are disrupted with a Polytron PT 10 (setting 4) for 30 seconds in 20 ml ice-cold 50 mM Tris adjusted with HCl to pH 7.7 at 25° C. (Tris buffer), filtered through a single layer of gauze to remove connective tissue, and centrifuged at 50,000 xg for ten min. The pellet is resuspended by homogenization with a Polytron in 20 ml Tris buffer, centrifuged at 50,000 xg for ten min., resuspended, incubated at 37° C. for 30 minutes, and centrifuged again. The final pellet is resuspended in Tris buffer and either used fresh or stored at -70° C.
All incubations are in triplicate for 60 minutes at 25° C. in 12×75 mm polystyrene tubes containing 1 ml Tris buffer with 20 mg original tissue wet weight of guinea pig lung nmembranes, 0.2 nM ^3 H-LTD4 (6,000-11,000 cpm), 10 mM MgCl2, and 1% dimethylsulfoxide Leukotrienes are diluted in Tris buffer. All other test compounds dissolved at 10 mM in dimethylsulfoxide on the same day as the experiment, and diluted in dimethylsulfoxide to 100× the final incubation concentration. Control incubations receive an equal volume (10 μl) of dimethylsulfoxide; the resulting concentration of dimethylsulfoxide had no effect on binding. ^3 H-LTD4 is diluted to 2 nM in Tris buffer. The membrane suspension (20 mg/0.89 ml) contains sufficient MgCl2 to give 10 mM final concentration in the incubation. […] All additions are performed at 0° C. Immediately after the last addition, the incubation is initiated by agitating the rack of tubes on a vortex mixer and warming to 25° C. in a water bath. Tubes are vortexed at least once more during the incubation to ensure that the membranes remained suspended. Incubations are terminated after 60 minutes by filtering under reduced pressure through 25 mm Whatman GF/B filters followed by rapid washing three times with 4 ml of ice-cold Tris buffer. Filters are added to scintillation vials with 8 ml Formula 947 (New England Nuclear), left overnight, shaken, and the radioactivity counted in a scintillation counter (efficiency 40%). Nonspecific binding, defined as binding of ^3 H-LTD4 in the presence of 100 nM LTC4, is 300-500 cpm for all lots of ^3 H-LTD4. Binding to the filters in the absence of tissue is about 100 cpm, and is not affected by unlabeled LTC4. Specific binding, defined as total binding minus nonspecific binding, varied considerably from lot to lot of ^3 H-LTD4. […]

Experiment [2] has as its target Human Leukocyte Lipoxygenase. Description: Human Leukocyte Lipoxygenase Assay (LDA-H). It is filed as biochemical. The note with it: for IC50: acetone-pentane powder enzyme, 234 nm, 24° C., 5 min preincubation, read-out: Concentration (M) for 50.0 % Inhibition, IC (LDAH). How it is done:
Human Leukocyte Lipoxygenase Assay (LDA-H)
Whole blood is collected from normal volunteers and spun in a refrigerated centrifuge for four minutes at 1°-6° C. at 3800 g. The buffy coat is manually separated and washed twice with chilled 0.83% NH4 Cl and centrifuged at 1000 RPM for ten minutes at 4° C. The white cell is suspended in culture media-EMEM supplemented with 6% Agamma human serum, tricine buffer, and neomycin and recentrifuged at 1000 g to yield a pellet containing the leukocytes used for the preparation of the acetone pentane powder.
The acetone-pentane powder is prepared utilizing a modification of the procedure reported for human platelet lipoxygenase. See Siegel, et al, Arachidonate Metabolism via Lipoxygenase and 12-L-hydroperoxy-5 Eicosatetraenoic Acid Peroxidase Sensitive to Antiinflammatory Drugs, Proc. Natl. Acad. Sci., USA 77: 308, 1980 and D. P. Wallach and V. R. Brown, A Novel Preparation of Human Platlet Lipoxygenase, Biochem. Biophys. Acta. 663: 361, 1981. Buffy coat prepared above is resuspended in 5-7 volumes of cold 0.1M Tris buffer, pH 7.4 containing 0.154M NaCl. The suspension is centrifuged at 13,300 g for ten minutes at 4° C. The resultant pellet is retained, resuspended in five volumes of cold acetone, recentrifuged at 13,300 g and resuspended in five volumes of cold pentane. The pentane suspension is centrifuged for ten minutes at 13,300 g to give a pellet which is dried in the cold under vacuum with periodic pulverization. The dry powder is stable for several weeks when stored at -80° C.
Enzyme stock solution is prepared in the following manner. About 15 mg of the acetone-pentane powder is suspended in 4 ml of cold tris buffer (0.1M, pH 7.4), allowed to stand for five minutes, and homogenized thoroughly. The homogenate is sonicated three times for 15 seconds each time, diluted to 7 ml with cold tris buffer (0.1M, pH 7.4), and centrifuged at 4° C. for 60 minutes at 13,300 g. the supernatent is retained and diluted to a total of 10 ml with cold tris buffer (0.1M, pH 7.4) to give the stock enzyme solution. Additional dilutions of 2-50 fold are done as necessary to locate optimal enzyme reaction rate in the assay described below.
Substrate solution is prepared at 100 μM or 1.0 μM concentrations of arachidonic acid or linoleic acid in 0.1M tris buffer, pH 9.0 containing 20% ethanol.
The enzyme reaction is followed spectrophotometrically by the appearance of a conjugated diene product at 234 nm. The reaction is monitored at 24° C. using a Gilford Model 2600 spectrophotometer. […] The effects of inhibitors on the reaction are compared with control reactions run under indentical conditions. Routinely, each compounds of the present invention is incubated with the enzyme for five minutes prior to addition of substrate to initiate the reaction. Inhibition expressed as IC50 as molar concentration of the compound required to reduce reaction rate to 50% control.

Consider `O=C(Nc1ccc(CCc2ccc(O)c(O)c2)cc1)C(=O)c1sc2ccc(Cl)cc2c1O` [Example 138, Benzo[b]thiophene-2-acetamide, 5-chloro-N-[4-[2-(3,4-dihydroxyphenyl)ethyl]phenyl]-3-hydroxy-α-oxo], for which the IC50 in experiment [1] is 0.000113 M; in experiment [2], 3.3e-05 M.

As to `O=C(Nc1ccc(CCc2ccc(Cl)cc2Cl)cc1)C1=C(O)c2ccccc2S(=O)(=O)C1` [Example 72, 2H-1-Benzothiopyran-3-carboxamide, N-[4-[2-(2,4-dichlorophenyl)ethyl]phenyl]-4-hydroxy-1,1-dioxide], the IC50 in experiment [1] came out at 3.5e-06 M; in experiment [2], 2.6e-06 M.

As to `COc1cccc(CCc2ccc(NC(=O)C3CS(=O)(=O)c4ccccc4C3=O)cc2)c1` (stereo not shown) [Example 39], the IC50 in experiment [1] is 2.48e-05 M; in experiment [2], 5.7e-05 M.

Turning to `O=C(Nc1ccc(CCc2ccc(C(F)(F)F)cc2)cc1)C1CS(=O)(=O)c2ccccc2C1=O` (stereo not shown) [Example 44], the IC50 in experiment [1] was 3.02e-06 M. The “% Inhibition (LDAH)” value in experiment [2] (Concentration 2.50 E -5 M) worked out at 0.0%.

Turning to `O=C(Nc1ccc(CCc2cc(Cl)cc(Cl)c2)cc1)C1=C(O)c2ccccc2S(=O)(=O)C1` [Example 71, 2H-1-Benzothiopyran-3-carboxamide, N-[4-[2-(3,5-dichlorophenyl)ethyl]phenyl]-4-hydroxy-, 1,1-dioxide], the IC50 was determined as 7.46e-06 M in experiment [1] and 0.0002 M in experiment [2].

On to `O=C(Nc1ccc(CCc2ccccc2O)cc1)C1=C(O)c2ccccc2S(=O)(=O)C1` [Example 38], for which the IC50 in experiment [1] turned out to be 6.68e-06 M. Also, the “% Inhibition (LDAH)” value in experiment [2] (Concentration 2.50 E -5 M) is 0.0%.

Consider `O=C(Nc1ccc(CCc2cc(O)cc(O)c2)cc1)C1=C(O)c2ccccc2S(=O)(=O)C1` [Example 33, N-[4-[2-(3,5-Dihydroxyphenyl)ethyl]phenyl]-4-hydroxy-2H-1-benzothiopyran-3-carboxamide, 1,1-dioxide], for which the IC50 turned out to be 8.2e-05 M in experiment [1] and 2.5e-05 M in experiment [2].

As to `CCCCCCc1ccc(NC(=O)C2CS(=O)(=O)c3ccccc3C2=O)cc1` (stereo not shown) [Example 58, N-(4-Hexylphenyl)-3,4-dihydro-4-oxo-2H-1-benzothiopyran-3-carboxamide, 1-1-dioxide], in experiment [1], the IC50 is 8.47e-06 M. The “% Inhibition (LDAH)” value in experiment [2] (Concentration 8.00 E -5 M) is given as 0.0%.

For the molecule `O=C(Nc1ccc(CCc2ccc(O)c(O)c2)cc1)C(=O)c1sc2ccccc2c1O` [Example 134, N-[4-[2-(3,4-Dihydroxyphenyl)ethyl]phenyl]-3-hydroxy-α-oxo-benzo[b]thiophene-2-acetamide], the results for the IC50 in experiment [1] and in experiment [2] were 6.88e-05 M and 8.2e-06 M, respectively.

`Cc1ccc(CCc2ccc(NC(=O)C3CS(=O)(=O)c4ccccc4C3=O)cc2)cc1` (stereo not shown) [Example 45]: the IC50 in experiment [1] came to 9.44e-06 M. Moreover, in experiment [2] (Concentration 8.00 E -5 M), the “% Inhibition (LDAH)” value is listed as 0.0%.

For the molecule `O=C(Nc1ccc(CCc2ccc(Cl)c(Cl)c2)cc1)C1CS(=O)(=O)c2ccccc2C1=O` (stereo not shown) [Example 11, N-[4-[2-(3,4-Dichlorophenyl)ethyl]phenyl]-3,4-dihydro-4-oxo-2H-1-benzothiopyran-3-carboxamide, 1,1-dioxide], the IC50 in experiment [1] stood at 3.64e-06 M; in experiment [2] it was 1.1e-06 M.

For `CC(=O)Nc1ccc(CCc2ccc(NC(=O)C3CS(=O)(=O)c4ccccc4C3=O)cc2)cc1` (stereo not shown) [Example 49], the IC50 in experiment [1] was 0.000149 M; in experiment [2], 3.5e-05 M.

For `CCCCCCCCc1ccc(NC(=O)C2CS(=O)(=O)c3ccccc3C2=O)cc1` (stereo not shown) [Example 59, 3,4-Dihydro-N-(4-octylphenyl)-4-oxo-2H-1-benzothiopyran-3-carboxamide, 1,1-dioxide], the IC50 in experiment [1] came out at 7.29e-06 M. In addition, the “% Inhibition (LDAH)” value in experiment [2] (Concentration 2.50 E -5 M) is reported as 0.0%.

`CCOC(=O)c1ccc(CCc2ccc(NC(=O)C3CS(=O)(=O)c4ccccc4C3=O)cc2)cc1` (stereo not shown) [Example 47, 4-[2-[4-[[(3,4-Dihydro-4-oxo-2H-1-benzothiopyran-3-yl)carbonyl]amino]pheyl]ethyl]benzoic acid, ethyl ester, 1,1-dioxide]: the IC50 in experiment [1] was 1.11e-05 M. For the same molecule, the “% Inhibition (LDAH)” value in experiment [2] (Concentration 8.00 E -5 M) is listed as 0.0%.

Take `COc1ccccc1CCc1ccc(NC(=O)C2=C(O)c3ccccc3S(=O)(=O)C2)cc1` [Example 37, 4-Hydroxy-N-8 4-[2-(2-methoxyphenyl)ethyl]phenyl-2H-1-benzothiopyran-3-carboxamide, 1,1-dioxide]: the IC50 in experiment [1] worked out at 1.9e-05 M. Also, the “% Inhibition (LDAH)” value in experiment [2] (Concentration 8.00 E -5 M) is 0.0%.

On to `O=C(Nc1ccc(CCc2cccc(O)c2)cc1)C1CS(=O)(=O)c2ccccc2C1=O` (stereo not shown) [Example 82], for which, in experiment [1], the IC50 came to 3.95e-05 M. The “% Inhibition (LDAH)” value in experiment [2] (Concentration 8.00 E -5 M) is 0.0%.

`O=C(Nc1ccc(CCc2ccc(O)cc2)cc1)C1CS(=O)(=O)c2ccccc2C1=O` (stereo not shown) [Example 40]: the IC50 in experiment [1] came out at 5.6e-05 M; in experiment [2], 8.2e-05 M.
